Measured values published in patent US11566047B2, “Peptide or pharmaceutically acceptable salt thereof, or prodrug thereof” (TOKYO UNIVERSITY OF PHARMACY & LIFE SCIENCES, priority 2016, dated 2023).
Square brackets hold non-standard residues; d marks the D form. Ends that are not written are not given here. Peptide text beside a SMILES is read from it. * marks the point of attachment. Diglycolyl(TOTA) = NCCCOCCOCCOCCCNC(=O)COCC(=O)*; Propanoyl(3,3-Ph2) = O=C(CC(c1ccccc1)c1ccccc1)*; 2Nal = N[C@@H](Cc1ccc2ccccc2c1)C(=O)O; Chg = N[C@H](C(=O)O)C1CCCCC1; X1 = COCCOCCOCCOCCC(=O)*; R111 = not defined here; Ahx = NCCCCCC(=O)O

target: T1, myostatin (Homo sapiens, UniProt O14793); assay: cell-based; conditions: HEK293, read-out: luciferase activity (relative; myostatin without test sample = 100%)
T1 sequence (O14793 267-375): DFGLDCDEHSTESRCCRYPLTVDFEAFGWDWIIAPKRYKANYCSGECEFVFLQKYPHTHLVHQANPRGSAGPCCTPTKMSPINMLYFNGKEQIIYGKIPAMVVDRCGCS
Method: Human embryo kidney cell HEK293 cells were cultured in a 5% (v/v) CO2 incubator set to 37° C. using DMEM (NACALAI TESQUE, INC.) including a 10% (v/v) fetal bovine serum (FBS) added with a 1% (v/v) non-essential amino acid (Wako Pure Chemical Corporation).
(2) In Vitro Reporter Assay
HEK293 cells were seeded on a D-Lys-corted 96-well transparent plate (Thermo Fisher Scientific Inc.) in an amount of 2.0×10^4 cells (100 μL DMEM+10% (v/v) FBS) per well and were cultured for 24 hours.
The cells were cultured at 37° C. for 24 hours, and after the cell culture solution was replaced with serum-free DMEM, the cells were cultured for 8 hours. Incidentally, pGL4.48 [luc2P/SBE/Hygro] includes firefly luciferase reporter gene luc2P under Smad binding region (SBE) control, and when a signaling pathway by the myostatin is activated, intracellular Smad forms a complex, and the complex is bonded to SBE to promote transcription of luc2P.
The peptide as a test sample was suspended as a stock solution using DMSO to become 10 mM and stored at −30° C. Before 1 hour from addition to the culture medium, the peptide and a myostatin (Merck Millipore Corp.) were suspended with serum-free DMEM and left to stand still at room temperature (25° C.) for 20 minutes. Subsequently, a peptide with an arbitrary final concentration (0.3 to […]) and 8 ng/mL of myostatin were added to the culture medium, and then culturing was performed for 4 hours. After culturing for 4 hours, the culture solution was removed by an aspirator and the cells were washed with 1×PBS. Thereafter, Passive Lysis buffer (Promega Corporation) was added in an amount of 50 μL per well to dissolve the cells. The dissolving solution was subjected to centrifugal separation at 4500 rpm for 6 minutes under the condition of 4° C. After 20 μL of supernatant subjected to centrifugal separation was transferred to a white 96-well plate (Costar), 50 μL of Luciferase Assay Reagent (Promega Corporation) was then added, emission was detected by Luminoskan Ascent (Thermo Fisher Scientific Inc.), and a firefly luciferase activity was measured. Further, after 50 μL of Stop & Glo Buffer (Promega Corporation) was added, emission was detected by Luminoskan Ascent, and a Renilla luciferase activity was measured to be regarded as an internal control.

| Compound | remaining activity at 0.3 µM [%] |
| --- | --- |
| CC[C@H](C)[C@H](NC(=O)[C@H](CCC(N)=O)NC(=O)[C@@H](NC(=O)[C@H](CCCCN)NC(=O)[C@@H](NC(=O)[C@H](Cc1c[nH]c2ccccc12)NC(=O)[C@H](CCCNC(=N)N)NC(=O)[C@@H](NC(=O)[C@H](Cc1ccc(O)cc1)NC(=O)[C@@H](N)Cc1c[nH]c2ccccc12)[C@@H](C)CC)[C@@H](C)CC)C1CCCCC1)C(=O)N[C@@H](Cc1c[nH]c2ccccc12)C(=O)N[C@@H](CO)C(=O)N[C@@H](CCCCN)C(=O)N[C@H](C(=O)N[C@@H](CCCNC(=N)N)C(=O)N[C@@H](CC(C)C)C(N)=O)C1CCCCC1 [nPDM-66, WYIRWIK-Chg-QIWSK-Chg-RL-NH2] (H-WYIRWIK[Chg]QIWSK[Chg]RL-NH2) | ≤ 60 |
| CC[C@H](C)[C@H](NC(=O)[C@H](Cc1ccc(O)cc1)NC(=O)CC(c1ccccc1)c1ccccc1)C(=O)N[C@@H](CCCNC(=N)N)C(=O)N[C@@H](Cc1c[nH]c2ccccc12)C(=O)N[C@H](C(=O)N[C@@H](CCCNC(=N)N)C(=O)N[C@H](C(=O)N[C@@H](CCC(N)=O)C(=O)N[C@H](C(=O)N[C@@H](Cc1c[nH]c2ccccc12)C(=O)N[C@@H](CO)C(=O)N[C@@H](CCCNC(=N)N)C(=O)N[C@H](C(=O)N1CCC[C@H]1C(=O)N[C@@H](CC(C)C)C(N)=O)C1CCCCC1)[C@@H](C)CC)C1CCCCC1)[C@@H](C)CC [nPDM-85, R^114-YIRWIR-Chg-QIWSR-Chg-PL-NH2] ({Propanoyl(3,3-Ph2)}-YIRWIR[Chg]QIWSR[Chg]PL-NH2) | ≤ 60 |
| CC[C@H](C)[C@H](NC(=O)[C@H](CCC(N)=O)NC(=O)[C@@H](NC(=O)[C@H](CCCCN)NC(=O)[C@@H](NC(=O)[C@H](Cc1c[nH]c2ccccc12)NC(=O)[C@H](CCCNC(=N)N)NC(=O)[C@@H](NC(=O)[C@H](Cc1ccc(O)cc1)NC(=O)[C@@H](N)Cc1c[nH]c2ccccc12)[C@@H](C)CC)[C@@H](C)CC)[C@@H](C)CC)C(=O)N[C@@H](Cc1c[nH]c2ccccc12)C(=O)N[C@@H](CO)C(=O)N[C@@H](CCCCN)C(=O)N[C@H](C(=O)N[C@@H](CCCNC(=N)N)C(=O)N[C@@H](CC(C)C)C(N)=O)C1CCCCC1 [nPDM-65, WYIRWIKIQIWSK-Chg-RL-NH2] (H-WYIRWIKIQIWSK[Chg]RL-NH2) | ≤ 60 |
| CC[C@H](C)[C@H](NC(=O)[C@H](CCC(N)=O)NC(=O)[C@@H](NC(=O)[C@H](CCCCN)NC(=O)[C@@H](NC(=O)[C@H](Cc1c[nH]c2ccccc12)NC(=O)[C@H](CCCNC(=N)N)NC(=O)[C@@H](NC(=O)[C@H](Cc1ccc(O)cc1)NC(=O)[C@@H](N)Cc1c[nH]c2ccccc12)[C@@H](C)CC)[C@@H](C)CC)C1CCCCC1)C(=O)N[C@@H](Cc1c[nH]c2ccccc12)C(=O)N[C@@H](CO)C(=O)N[C@@H](CCCCN)C(=O)N[C@@H](CC(C)C)C(=O)N[C@@H](CCCNC(=N)N)C(=O)N[C@@H](CC(C)C)C(N)=O [nPDM-64, WYIRWIK-Chg-QIWSKLRL-NH2] (H-WYIRWIK[Chg]QIWSKLRL-NH2) | ≤ 60 |
| CC[C@H](C)[C@H](NC(=O)[C@H](CCC(N)=O)NC(=O)[C@@H](NC(=O)[C@H](CCCCN)NC(=O)[C@@H](NC(=O)[C@H](Cc1ccc2ccccc2c1)NC(=O)[C@H](CCCNC(=N)N)NC(=O)[C@@H](NC(=O)[C@H](Cc1ccc(O)cc1)NC(=O)[C@@H](N)Cc1ccc(O)cc1)[C@@H](C)CC)[C@@H](C)CC)[C@@H](C)CC)C(=O)N[C@@H](Cc1c[nH]c2ccccc12)C(=O)N[C@@H](CO)C(=O)N[C@@H](CCCCN)C(=O)N[C@@H](CC(C)C)C(=O)N[C@@H](CCCNC(=N)N)C(=O)N[C@@H](CC(C)C)C(N)=O [nPDM-69, YYIR-Naa-IKIQIWSKLRL-NH2] (H-YYIR[2Nal]IKIQIWSKLRL-NH2) | ≤ 60 |
| CC[C@H](C)[C@H](NC(=O)[C@H](CCC(N)=O)NC(=O)[C@@H](NC(=O)[C@H](CCCCN)NC(=O)[C@@H](NC(=O)[C@H](Cc1c[nH]c2ccccc12)NC(=O)[C@H](CCC(N)=O)NC(=O)[C@@H](NC(=O)[C@H](Cc1ccc(O)cc1)NC(=O)[C@@H](N)Cc1c[nH]c2ccccc12)[C@@H](C)CC)[C@@H](C)CC)[C@@H](C)CC)C(=O)N[C@@H](Cc1c[nH]c2ccccc12)C(=O)N[C@@H](CO)C(=O)N[C@@H](CCCCN)C(=O)N[C@@H](CC(C)C)C(=O)N[C@@H](CCCNC(=N)N)C(=O)N[C@@H](CC(C)C)C(N)=O [nPDM-55/E31Q, WYIQWIKIQIWSKLRL-NH2] (H-WYIQWIKIQIWSKLRL-NH2) | ≤ 60 |

More lines, now with the values ahead:

| remaining activity at 0.3 µM [%] | Compound |
| --- | --- |
| ≤ 60 | CC[C@H](C)[C@H](NC(=O)[C@H](CCC(N)=O)NC(=O)[C@@H](NC(=O)[C@H](CCCCN)NC(=O)[C@@H](NC(=O)[C@@H](Cc1c[nH]c2ccccc12)NC(=O)[C@H](CCCNC(=N)N)NC(=O)[C@@H](NC(=O)[C@H](Cc1ccc(O)cc1)NC(=O)[C@H](Cc1c[nH]c2ccccc12)NC(=O)CNC(=O)COCC(=O)NCCCOCCOCCOCCCN)[C@@H](C)CC)[C@@H](C)CC)C1CCCCC1)C(=O)N[C@@H](Cc1c[nH]c2ccccc12)C(=O)N[C@@H](CO)C(=O)N[C@@H](CCCCN)C(=O)N[C@H](C(=O)N[C@@H](CCCNC(=N)N)C(=O)N[C@@H](CC(C)C)C(N)=O)C1CCCCC1 [PDM-90, R^116-WYIRwIK-Chg-QIWSK-Chg-RL-NH2] ({Diglycolyl(TOTA)}-GWYIR[dW]IK[Chg]QIWSK[Chg]RL-NH2) |
| ≤ 60 | CC[C@H](C)[C@H](NC(=O)[C@H](CCC(N)=O)NC(=O)[C@@H](NC(=O)[C@H](CCCCN)NC(=O)[C@@H](NC(=O)[C@@H](Cc1c[nH]c2ccccc12)NC(=O)[C@H](CCCNC(=N)N)NC(=O)[C@@H](NC(=O)[C@H](Cc1ccc(O)cc1)NC(=O)[C@H](Cc1c[nH]c2ccccc12)NC(=O)CCCCCNC(=O)COCC(=O)NCCCOCCOCCOCCCN)[C@@H](C)CC)[C@@H](C)CC)C1CCCCC1)C(=O)N[C@@H](Cc1c[nH]c2ccccc12)C(=O)N[C@@H](CO)C(=O)N[C@@H](CCCCN)C(=O)N[C@H](C(=O)N[C@@H](CCCNC(=N)N)C(=O)N[C@@H](CC(C)C)C(N)=O)C1CCCCC1 [PDM-89, R^115-WYIRwIK-Chg-QIWSK-Chg-RL-NH2] ({Diglycolyl(TOTA)-Ahx}-WYIR[dW]IK[Chg]QIWSK[Chg]RL-NH2) |
| ≤ 60 | CC[C@H](C)[C@H](NC(=O)[C@H](CCC(N)=O)NC(=O)[C@@H](NC(=O)[C@H](CCCNC(=N)N)NC(=O)[C@@H](NC(=O)[C@@H](Cc1c[nH]c2ccccc12)NC(=O)[C@H](CCCNC(=N)N)NC(=O)[C@@H](NC(=O)[C@H](Cc1ccc(O)cc1)NC(=O)[C@H](Cc1c[nH]c2ccccc12)NC(=O)CCCCCNC(=O)CCOCCOCCOCCOC)[C@@H](C)CC)[C@@H](C)CC)C1CCCCC1)C(=O)N[C@@H](Cc1c[nH]c2ccccc12)C(=O)N[C@@H](CO)C(=O)N[C@@H](CCCNC(=N)N)C(=O)N[C@H](C(=O)N1CCC[C@H]1C(=O)N[C@@H](CC(C)C)C(N)=O)C1CCCCC1 [PDM-80, R^111-WYIRwIR-Chg-QIWSR-Chg-PL-NH2] ({X1-Ahx}-WYIR[dW]IR[Chg]QIWSR[Chg]PL-NH2) |

same assay, conditions: at a concentration of 1 μM or more; 8 ng/mL myostatin; HEK293

| Compound | myostatin inhibitory activity (concentration-dependent evaluation) |
| --- | --- |
| R^111-WYIEWIKIQIISKLRL-NH2 (R111-WYIEWIKIQIISKLRL-NH2; reading uncertain; also: printed as R^111-WYIEWIKIQIISKLRL-NH2) [PDM-27] | significant myostatin inhibitory activity |

same assay, conditions: final concentration of 1 μM

| Compound | myostatin inhibitory activity |
| --- | --- |
| WYIEAIKIQILSKLRL-NH2 [d-14, reference compound] | a high myostatin inhibitory activity was not recognized |
| SRIEAIKIQILSKLRL-NH2 (listed as Mus musculus) [mMPS(28-43), reference compound] | a high myostatin inhibitory activity was not recognized |

same assay, conditions: final concentration of 10 μM

| Compound | myostatin inhibitory activity |
| --- | --- |
| SRIEAIKIQILSKLRL-NH2 (listed as Mus musculus) [mMPS(28-43), reference compound] | the myostatin inhibitory activity was not recognized |
